Experimental findings from US20100010053A1, “COMPOUNDS” (priority 2008, published 2010) are described below.

The target in the experiment is T1, human S1P3 receptor (EDG3) (Homo sapiens, UniProt Q99500).
T1 construct: expressed in transfected cells; host or cells: rat basophilic leukaemia cells RBL-2H3 (membranes, GTPγS assay) or GeneBLAzer EDG3-Ga15-NFAT-bla HEK 293T cells
Kind of experiment: S1P3 GTPγS assay or S1P3 GeneBlazer assay (at least one of the above assays). The experiment is classed as cell-based. The note with it: given as EC50. How it is done:
S1P3 membranes from rat basophilic leukaemia cells (RBL-2H3) (1.5 μg/well) were adhered to WGA-coated SPA beads (0.125 mg/well) in assay buffer (HEPES 20 mM, MgCl2 3 mM, NaCl 100 mM and pH adjusted to 7.4 using KOH 5M), GDP 10 μM FAC and saponin 90 μg/ml FAC was also added).
After 30 minutes pre-coupling on ice the bead and membrane suspension was dispensed into a white Greiner polypropylene LV384-well plate (5 μl/well), containing 0.1 μl of the compound. 5 μl/well [^35S]-GTPγS (0.5 nM final radioligand conc) made up in assay buffer was then added to agonist plates. The final assay cocktail (10.1 μl) was centrifuged at 1000 rpm for 5 minutes then read immediately on a Viewlux reader.
All test compounds were dissolved in DMSO at a concentration of 10 mM and were prepared in 100% DMSO using a 1 in 4 dilution step to provide 11 point dose response curves. The dilutions were transferred to the assay plates ensuring that the DMSO concentration was constant across the plate for all assays. […]
After incubation at 37° C., 5% CO2 for 5 h, 25 μl of 6× substrate mixture (6 μl Solution A (1 mg LiveBLAzer™-FRET B/G Substrate (CCF4-AM) in 912 μl DMSO) plus 60 μl Solution B plus 934 μl Solution C) was added to each well and incubate at room temperature for 2 h in dark. The plate was finally read on EnVision for two emission channels (460 nm and 530 nm). […]

T1 sequence (Q99500 whole entry): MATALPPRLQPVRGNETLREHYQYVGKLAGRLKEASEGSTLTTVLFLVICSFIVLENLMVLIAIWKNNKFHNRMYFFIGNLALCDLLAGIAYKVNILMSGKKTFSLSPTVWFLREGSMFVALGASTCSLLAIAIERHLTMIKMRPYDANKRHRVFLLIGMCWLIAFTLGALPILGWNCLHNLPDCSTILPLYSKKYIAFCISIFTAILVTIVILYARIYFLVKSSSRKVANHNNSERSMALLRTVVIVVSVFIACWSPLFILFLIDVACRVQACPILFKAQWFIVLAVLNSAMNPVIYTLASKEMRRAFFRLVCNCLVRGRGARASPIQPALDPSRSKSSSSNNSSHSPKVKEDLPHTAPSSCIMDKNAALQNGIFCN

As for `CC(C)Oc1ccc(-c2nc(-c3cccc4c([C@H]5C[C@H]5C(=O)O)cn(C)c34)no2)cc1Cl` (relative stereo) [Example 40, cis-2-[7-(5-{3-chloro-4-[(1-methylethyl)oxy]phenyl}-1,2,4-oxadiazol-3-yl)-1-methyl-1H-indol-3-yl]cyclopropanecarboxylic acid], the EC50 was 0.316 µM.
